The text below walks through data of patent publication US20250154154A1 (Relay Binney Street, 2nd Floor, priority 2020, published 2025).

pIC50: −log10 of the molar value.

In experiment [1] the target is SRC (Homo sapiens, UniProt P12931). The experiment in a line: SRC Biochemical Assay Protocol (microfluidic mobility shift assay, FLPeptide4 substrate). Put shortly: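 Recombinant SRC (0.26 nM) preincubated 30 min at RT with compound (0.0017–100 μM) and 1.5 μM FLPeptide4, then 50 μM ATP added; 90 min reaction in HEPES pH 7.4, 10 mM MgCl2, 1% DMSO, EDTA-quenched. Phosphopeptide quantified by microfluidic mobility shift; IC50 from 4-parameter logistic fit.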
SRC, sequence (P12931 whole entry, species assumed): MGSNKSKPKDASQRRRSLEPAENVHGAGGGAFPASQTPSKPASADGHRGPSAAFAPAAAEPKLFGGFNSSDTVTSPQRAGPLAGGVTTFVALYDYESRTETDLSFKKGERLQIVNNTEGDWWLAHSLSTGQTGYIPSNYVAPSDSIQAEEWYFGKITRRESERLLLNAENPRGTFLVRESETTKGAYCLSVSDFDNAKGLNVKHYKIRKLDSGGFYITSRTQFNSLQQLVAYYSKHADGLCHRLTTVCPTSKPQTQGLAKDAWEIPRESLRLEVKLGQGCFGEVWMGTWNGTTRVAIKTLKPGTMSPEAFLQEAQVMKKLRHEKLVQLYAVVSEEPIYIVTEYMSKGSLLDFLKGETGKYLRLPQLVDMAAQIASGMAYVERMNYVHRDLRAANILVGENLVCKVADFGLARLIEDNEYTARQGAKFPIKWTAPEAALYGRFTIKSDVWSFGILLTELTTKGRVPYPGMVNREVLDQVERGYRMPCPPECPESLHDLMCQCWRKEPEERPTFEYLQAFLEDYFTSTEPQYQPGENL

Experiment [2] relates to RBE cells. Kind of experiment: Cell Viability Protocol (CellTiterGlo), RBE cells. The note with it: RBE or SNU-1079 cells, 72 or 120 hour, cell line and time not given. It is filed as cell-based. Put shortly:
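RBE cells plated at 1200/well in RPMI 1640 with 10% FBS, incubated 24 h, then dosed with compound from DMSO stocks and incubated 72 or 120 h at 37° C. CellTiterGlo luminescence normalised to DMSO control; IC50 from 4-parameter fit.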
(Cellular ATP, detected with luciferase, serves as a proxy for viable cell number.)

Experiment [3] deals with phospho-S6RP (Ser 235/236) in RBE cells. The experiment in a line: Cellular Proliferation Protocol (cellular phospho-S6RP HTRF), RBE cells. The class given is cell-based. As to conditions: 6 hours treatment, RBE or SNU-1079 cells, cell line not given. Put shortly: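 RBE cells, 2000/well, seeded 24 h before 6 h compound treatment at 37° C. Lysates were probed with a Eu-cryptate/d2 HTRF antibody sandwich for phospho-S6RP (Ser 235/236), incubated overnight at room temperature. Signal normalised to DMSO control and IC50 fitted to a 4-parameter curve.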
For orientation: Time-resolved FRET reads energy transfer from a long-lived donor to a nearby acceptor.

`Cc1ccnc(Oc2ccc(-c3c(C#C[C@@H]4[C@H]5CN(C(=O)/C=C/CN6CCC(F)C6)C[C@@H]45)n(C)c4ncnc(N)c34)cc2)c1` (stereo partly drawn) [II-240, (E)-1-((1R,5S,6s)-6-((4-amino-7-methyl-5-(4-((4-methylpyridin-2-yl)oxy)phenyl)-7H-pyrrolo[2,3-d]pyrimidin-6-yl)ethynyl)-3-azabicyclo[3.1.0]hexan-3-yl)-4-(3-fluoropyrrolidin-1-yl)but-2-en-1-one]: the pIC50 in experiment [1], in experiment [2] and in experiment [3] was 6.00 to 8.00 each time.

As to `C=CC(=O)N1CC[C@@H](N2CC(C#Cc3c(-c4ccc(OC(F)(F)F)cc4)c4c(N)ncnc4n3C)C2)[C@@H](O)C1` [II-73], the pIC50 in experiment [1], in experiment [2] and in experiment [3] was 6.00 to 8.00 in each case.

For the compound `C=CC(=O)N1CCC(N2CC(C#Cc3c(-c4ccc(Cl)c(OC)c4)c4c(N)ncnc4n3C)C2)C[C@H]1CO` (stereo partly drawn) [II-256], the pIC50 in experiment [1], in experiment [2] and in experiment [3] (6 h) was 6.00 to 8.00 each time.

Consider `Cn1c(C#C[C@@H]2[C@H]3CN(C(=O)/C=C/CN4CCC(F)C4)C[C@@H]23)c(-c2ccc(Oc3cccc(F)c3)cc2)c2c(N)ncnc21` (stereo partly drawn) [II-234, (E)-1-((1R,5S,6s)-6-((4-amino-5-(4-(3-fluorophenoxy)phenyl)-7-methyl-7H-pyrrolo[2,3-d]pyrimidin-6-yl)ethynyl)-3-azabicyclo[3.1.0]hexan-3-yl)-4-(3-fluoropyrrolidin-1-yl)but-2-en-1-one], for which the pIC50 in experiment [1], in experiment [2] and in experiment [3] (6 h) was 6.00 to 8.00 each time.

Take `C=CC(=O)N1CCC(N2CC(C#Cc3c(-c4ccc(Cl)c(OC)c4)c4c(N)ncnc4n3C(C)C)C2)CC1` [II-86]: the values for the pIC50 in experiment [1], in experiment [2] and in experiment [3] were at least 8.00, 6.00 to 8.00 and at least 8.00, respectively.

Turning to `C=CC(=O)N1CCC(N2CC(C#Cc3c(-c4ccc(OC5CC5)cc4)c4c(N)ncnc4n3C)C2)CC1` [II-100], the pIC50 (commonly the IC50 on a negative log10 scale, so that one unit is a factor of ten) is 5.00 to 6.00 in experiment [1], 6.00 to 8.00 in experiment [2] and 6.00 to 8.00 in experiment [3].

Turning to `C=CC(=O)N1CCC(C#Cc2c(-c3ccc(Oc4ccccc4)cc3)c3c(N)ncnc3n2C(C)COC)CC1` (stereo not drawn) [Example I-57], the pIC50 in experiment [1], in experiment [2] and in experiment [3] (6 h) was 6.00 to 8.00 each time.

Regarding `C=CC(=O)N1CCC(N2CC(C#Cc3c(-c4cccc(Cl)c4OC)c4c(N)ncnc4n3C)C2)CC1` [II-264], the pIC50 in experiment [1], in experiment [2] and in experiment [3] (6 h) was 5.00 to 6.00 throughout.

Regarding `CN(C)CC=CC(=O)N1CC2C(C#Cc3c(-c4cccc5c4OCO5)c4c(N)ncnc4n3C)C2C1` (stereo not drawn) [II-115], the figures for the pIC50 in experiment [1], in experiment [2] and in experiment [3] were at least 8.00, 6.00 to 8.00 and 6.00 to 8.00, respectively.

Take `C=CC(=O)N1C[C@@H]2[C@@H](C#Cc3c(-c4ccc(Oc5cccc(C)n5)c(OC)c4)c4c(N)ncnc4n3CS(C)(=O)=O)[C@@H]2C1` [II-51]: the pIC50 in experiment [1], in experiment [2] and in experiment [3] was 6.00 to 8.00 each time.

As to `C=CC(=O)N1C[C@@H]2[C@@H](C#Cc3c(-c4ccc(Oc5ccccn5)cc4)c4c(N)ncnc4n3C3CCOC3)[C@@H]2C1` (mixture of isomers) [II-23], the figures for the negative-log IC50 (pIC50) in experiment [1], in experiment [2] and in experiment [3] were 6.00 to 8.00, at least 8.00 and at least 8.00, respectively.

With `Cc1ccnc(Oc2ccc(-c3c(C#C[C@@H]4[C@H]5CN(C(=O)/C=C/CN(C)C)C[C@@H]45)n(C)c4ncnc(N)c34)cc2)c1` [II-241, (E)-1-((1R,5S,6s)-6-((4-amino-7-methyl-5-(4-((4-methylpyridin-2-yl)oxy)phenyl)-7H-pyrrolo[2,3-d]pyrimidin-6-yl)ethynyl)-3-azabicyclo[3.1.0]hexan-3-yl)-4-(dimethylamino) but-2-en-1-one], the pIC50 in experiment [1], in experiment [2] and in experiment [3] was 6.00 to 8.00 in each case.

For `COCCN(C)C/C=C/C(=O)N1C[C@@H]2[C@@H](C#Cc3c(-c4ccc(Oc5cccc(C)n5)c(OC)c4)c4c(N)ncnc4n3C)[C@@H]2C1` [II-237, (E)-1-((1R,5S,6s)-6-((4-amino-5-(3-methoxy-4-((6-methylpyridin-2-yl)oxy)phenyl)-7-methyl-7H-pyrrolo[2,3-d]pyrimidin-6-yl)ethynyl)-3-azabicyclo[3.1.0]hexan-3-yl)-4-((2-methoxyethyl) (methyl)amino)but-2-en-1-one], the pIC50 in experiment [1], in experiment [2] and in experiment [3] (6 h) was 6.00 to 8.00 each time.

Turning to `C=CC(=O)N1C[C@@H]2[C@@H](C#Cc3c(-c4ccc(Cl)c(OC)c4)c4c(N)ncnc4n3C(C)C)[C@@H]2C1` [II-271], the pIC50 in experiment [1], in experiment [2] and in experiment [3] (6 h) was at least 8.00 in each case.

Consider `C=CC(=O)N1CCC(N2CC(C#Cc3c(-c4ccc5c(c4)OCCN5C)c4c(N)ncnc4n3C)C2)CC1` [II-105], for which the pIC50 in experiment [1], in experiment [2] and in experiment [3] was 6.00 to 8.00 in each case.

In the case of `C=CC(=O)N1CCC(N2CC(C#Cc3c(-c4ccc(Cl)c(F)c4)c4c(N)ncnc4n3C)C2)CC1` [II-96], the negative logarithm of the IC50 (pIC50) in experiment [1], in experiment [2] and in experiment [3] was 6.00 to 8.00 throughout.

As to `C=CC(=O)NC1CCC(C#Cc2c(-c3ccc(Oc4ccccc4)cc3)c3c(N)ncnc3n2C(C)C)CC1` (stereo not drawn) [Example I-20], the pIC50 in experiment [1] is 6.00 to 8.00; in experiment [2], 6.00 to 8.00; in experiment [3] (6 h), at least 8.00.

Take `C=CC(=O)N1CCC(N2CC(C#Cc3c(-c4ccc(Cl)cn4)c4c(N)ncnc4n3C)C2)CC1` [II-325]: the pIC50 in experiment [1] was 6.00 to 8.00; in experiment [2], 5.00 to 6.00; in experiment [3], 5.00 to 6.00.

For the compound `C=CC(=O)N1CC2C(C#Cc3c(-c4ccc(Cl)c5c4OC(F)(F)O5)c4c(N)ncnc4n3C)C2C1` (stereo not drawn) [II-128], the pIC50 in experiment [1] was 5.00 to 6.00; in experiment [2], 6.00 to 8.00; in experiment [3], 5.00 to 6.00.

As to `C=CC(=O)N1CCC(N2CC(C#Cc3c(-c4ccc(OC5CC5)c(OC)c4)c4c(N)ncnc4n3C)C2)CC1` [II-98], the pIC50 in experiment [1], in experiment [2] and in experiment [3] was 6.00 to 8.00 each time.

With `C=CC(=O)N1CCC(N2CC(C#Cc3c(-c4ccc(Oc5ccccc5)cc4)c4c(N)ncnc4n3C)C2)C1` (stereo not drawn) [II-195, 1-(3-(3-((4-amino-7-methyl-5-(4-phenoxyphenyl)-7H-pyrrolo[2,3-d]pyrimidin-6-yl)ethynyl)azetidin-1-yl)pyrrolidin-1-yl)prop-2-en-1-one], the pIC50 in experiment [1], in experiment [2] and in experiment [3] (6 h) was 6.00 to 8.00 in each case.

With `C=CC(=O)N1CCC(N2CC(F)(C#Cc3c(-c4ccc(Oc5ccccc5)c(OC)n4)c4c(N)ncnc4n3C)C2)CC1` [II-317], the pIC50 is 6.00 to 8.00 in experiment [1], at least 8.00 in experiment [2] and 6.00 to 8.00 in experiment [3].

With `C=CC(=O)N1C[C@@H]2[C@@H](C#Cc3c(-c4cccc5c4OCO5)c4c(N)ncnc4n3C(C)C)[C@@H]2C1` [II-132], the pIC50 in experiment [1], in experiment [2] and in experiment [3] was at least 8.00 in each case.

Regarding `C=CC(=O)N1CCN(C2CC(C#Cc3c(-c4ccc(Oc5ccccc5)cc4)c4c(N)ncnc4n3C)C2)C(=O)C1` (stereo not drawn) [II-166, 4-acryloyl-1-(3-((4-amino-7-methyl-5-(4-phenoxyphenyl)-7H-pyrrolo[2,3-d]pyrimidin-6-yl)ethynyl)cyclobutyl) piperazin-2-one], the pIC50 in experiment [1], in experiment [2] and in experiment [3] (6 h) was at least 8.00 in each case.

As for `C=CC(=O)N1C[C@@H]2[C@@H](C#Cc3c(-c4ccc(Oc5cnccn5)cc4)c4c(N)ncnc4n3C)[C@@H]2C1` [II-22], the negative logarithm of the IC50 (pIC50) in experiment [1], in experiment [2] and in experiment [3] was 6.00 to 8.00 throughout.

Turning to `C=CC(=O)N1CC[C@@H](N2CC(C#Cc3c(-c4ccc(Oc5cccc(C)n5)cc4OC)c4c(N)ncnc4n3C)C2)[C@@H](O)C1` [II-19], the pIC50 was 6.00 to 8.00 in experiment [1], 5.00 to 6.00 in experiment [2] and 6.00 to 8.00 in experiment [3].

On to `C=CC(=O)N1CC[C@@H](N2CC(C#Cc3c(-c4cccc5c4cnn5C)c4c(N)ncnc4n3C)C2)[C@@H](O)C1` [II-63, 1-((3S,4R)-4-(3-((4-amino-7-methyl-5-(1-methyl-1H-indazol-4-yl)-7H-pyrrolo[2,3-d]pyrimidin-6-yl)ethynyl)azetidin-1-yl)-3-hydroxypiperidin-1-yl)prop-2-en-1-one], for which the pIC50 in experiment [1], in experiment [2] and in experiment [3] (6 h) was 5.00 to 6.00 throughout.

In the case of `C=CC(=O)NCC(=O)N1C[C@@H]2[C@@H](C#Cc3c(-c4ccc(Oc5cccc(C)n5)cc4)c4c(N)ncnc4n3C)[C@@H]2C1` [II-212, N-[2-[(1R,5S,6S)-6-[2-(4-amino-7-methyl-5-[4-[(6-methylpyridin-2-yl)oxy]phenyl]-7H-pyrrolo[2,3-d]pyrimidin-6-yl)ethynyl]-3-azabicyclo[3.1.0]hexan-3-yl]-2-oxoethyl]prop-2-enamide], the pIC50 in experiment [1], in experiment [2] and in experiment [3] (6 h) was at least 8.00 in each case.

For the compound `C=CC(=O)N1CCC(C#Cc2c(-c3ccc(Oc4ccccc4)cc3)c3c(N)ncnc3n2C2CCOC2)CC1` (stereo not drawn) [Example I-32], the pIC50 is 6.00 to 8.00 in experiment [1], 6.00 to 8.00 in experiment [2] and at least 8.00 in experiment [3] (6 h).

Consider `C=CS(=O)(=O)N1CC[C@@H](N2CC(C#Cc3c(-c4ccc(Oc5ccccc5)cc4)c4c(N)ncnc4n3C)C2)[C@@H](O)C1` [II-280], for which the negative logarithm of the IC50 (pIC50) in experiment [1] was at least 8.00; in experiment [2] it was at least 8.00; in experiment [3] (6 h) it was 6.00 to 8.00.
